Reference: PubChem BioAssay AID1053151 (Broad Institute, 2014)

Legend:
[1] = reduction of secreted ApoB protein, dose response, orthogonal assay for Trib1 inducer project, cell-based, HepG2, ELISA, plate reader, cherry-pick (AID 1053151); details: HepG2 secreted ApoB ELISA, 24 h, ApoB inhibition at active concentration, stronger effect = higher value
[2] = test system: HepG2 secreted ApoB ELISA, 24 h; assay: as above

| Structure (SMILES) | inhibition ([1]; at 0.02 µM) [%] | active concentration (lower = more potent) [2] [nM] | inhibition ([1]; at 3.5 µM) [%] |
| --- | --- | --- | --- |
| CN1C(=O)c2cc(NC(=O)c3ccc(C(F)(F)F)cc3)ccc2OC[C@@H]2O[C@H](CC(=O)NC3Cc4ccccc4C3)CC[C@@H]21 | 99 | 20 |  |
| CN1C(=O)c2cc(NC(=O)c3ccc(C(F)(F)F)cc3)ccc2OC[C@@H]2O[C@@H](CC(=O)NC3Cc4ccccc4C3)CC[C@@H]21 |  | 3500 | 90 |
